Assay results reported in the kinase profiling compilation of Christmann-Franck et al. (2016).

Experiments:
Assay in all cases: KINOMEscan competition binding
Conditions in all cases: compound 10.0 µM
MYLK3 (human) = MYLK3 (human) (UniProt Q32MK0)
RIOK2 (human) = RIOK2 (human) (UniProt Q9BVS4)
PIM2 (human) = PIM2 (human) (UniProt Q9P1W9)
[1] = target: JAK3 JH1 catalytic (human) (UniProt P52333)
STK16 (human) = STK16 (human) (UniProt O75716)
MELK (human) = MELK (human) (UniProt Q14680)
PDGFRB (human) = PDGFRB (human) (UniProt P09619)
DYRK1B (human) = DYRK1B (human) (UniProt Q9Y463)
RIPK2 (human) = RIPK2 (human) (UniProt O43353)
RIPK4 (human) = RIPK4 (human) (UniProt P57078)
MAP4K2 (human) = MAP4K2 (human) (UniProt Q12851)
DAPK2 (human) = DAPK2 (human) (UniProt Q9UIK4)
HIPK1 (human) = HIPK1 (human) (UniProt Q86Z02)
FLT3 (human) = FLT3 (human) (UniProt P36888)
CAMKK2 (human) = CAMKK2 (human) (UniProt Q96RR4)
MYLK (human) = MYLK (human) (UniProt Q15746)
CLK3 (human) = CLK3 (human) (UniProt P49761)
CAMKK1 (human) = CAMKK1 (human) (UniProt Q8N5S9)
STK17B (human) = STK17B (human) (UniProt O94768)
MAP3K5 (human) = MAP3K5 (human) (UniProt Q99683)
MKNK1 (human) = MKNK1 (human) (UniProt Q9BUB5)
[2] = test system: KIT (human), P10721 [V559D/T670I]
RPS6KA6 KD2 (human) = RPS6KA6 KD2 (human) (UniProt Q9UK32)
MYLK4 (human) = MYLK4 (human) (UniProt Q86YV6)
CSNK1G3 (human) = CSNK1G3 (human) (UniProt Q9Y6M4)
[3] = test system: KIT (human), P10721 [D816V]
TTK (human) = TTK (human) (UniProt P33981)
CSNK1G1 (human) = CSNK1G1 (human) (UniProt Q9HCP0)
STK17A (human) = STK17A (human) (UniProt Q9UEE5)
KIT (human) = KIT (human) (UniProt P10721)
ACVR1 (human) = ACVR1 (human) (UniProt Q04771)
PIP5K1A (human) = PIP5K1A (human) (UniProt Q99755)
MAP2K3 (human) = MAP2K3 (human) (UniProt P46734)
PIM1 (human) = PIM1 (human) (UniProt P11309)
NEK2 (human) = NEK2 (human) (UniProt P51955)
[4] = test system: FLT3 (human), P36888 [D835H]
PLK4 (human) = PLK4 (human) (UniProt O00444)
[5] = target: JAK1 JH2 pseudokinase (human) (UniProt P23458)
[6] = test system: EGFR (human), P00533 [G719S]
ULK2 (human) = ULK2 (human) (UniProt Q8IYT8)
MAP4K4 (human) = MAP4K4 (human) (UniProt O95819)
CSNK1D (human) = CSNK1D (human) (UniProt P48730)

Sequence of KIT (human), P10721 [V559D/T670I] (P10721 whole entry V559D/T670I, looked up): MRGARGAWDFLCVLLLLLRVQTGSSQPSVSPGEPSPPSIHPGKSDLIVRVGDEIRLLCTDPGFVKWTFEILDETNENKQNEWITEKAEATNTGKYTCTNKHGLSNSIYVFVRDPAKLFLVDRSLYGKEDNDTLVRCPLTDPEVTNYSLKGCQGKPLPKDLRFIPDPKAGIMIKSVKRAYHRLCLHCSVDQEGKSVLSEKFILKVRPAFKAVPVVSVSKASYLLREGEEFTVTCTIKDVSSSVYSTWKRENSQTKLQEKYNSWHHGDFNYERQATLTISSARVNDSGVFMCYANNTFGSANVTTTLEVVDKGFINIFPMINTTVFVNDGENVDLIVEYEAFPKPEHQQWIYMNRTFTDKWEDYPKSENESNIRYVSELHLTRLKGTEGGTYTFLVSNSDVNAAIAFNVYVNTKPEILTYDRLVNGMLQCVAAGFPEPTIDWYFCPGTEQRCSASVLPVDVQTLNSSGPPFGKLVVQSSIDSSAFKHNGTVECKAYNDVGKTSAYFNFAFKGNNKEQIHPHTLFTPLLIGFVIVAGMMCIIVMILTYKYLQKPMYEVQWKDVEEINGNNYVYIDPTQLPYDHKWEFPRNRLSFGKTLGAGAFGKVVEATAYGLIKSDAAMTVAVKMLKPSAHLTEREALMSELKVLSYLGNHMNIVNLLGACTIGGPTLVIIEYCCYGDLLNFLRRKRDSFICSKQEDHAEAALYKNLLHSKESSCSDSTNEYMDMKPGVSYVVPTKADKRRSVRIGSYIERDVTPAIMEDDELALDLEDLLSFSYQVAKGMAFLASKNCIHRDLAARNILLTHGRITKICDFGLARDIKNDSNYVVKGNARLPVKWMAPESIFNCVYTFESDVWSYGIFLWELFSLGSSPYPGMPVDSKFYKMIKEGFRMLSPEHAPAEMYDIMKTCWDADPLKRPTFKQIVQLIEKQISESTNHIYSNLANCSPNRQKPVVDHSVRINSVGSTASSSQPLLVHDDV
Sequence of MAP2K3 (human) (P46734 whole entry, looked up): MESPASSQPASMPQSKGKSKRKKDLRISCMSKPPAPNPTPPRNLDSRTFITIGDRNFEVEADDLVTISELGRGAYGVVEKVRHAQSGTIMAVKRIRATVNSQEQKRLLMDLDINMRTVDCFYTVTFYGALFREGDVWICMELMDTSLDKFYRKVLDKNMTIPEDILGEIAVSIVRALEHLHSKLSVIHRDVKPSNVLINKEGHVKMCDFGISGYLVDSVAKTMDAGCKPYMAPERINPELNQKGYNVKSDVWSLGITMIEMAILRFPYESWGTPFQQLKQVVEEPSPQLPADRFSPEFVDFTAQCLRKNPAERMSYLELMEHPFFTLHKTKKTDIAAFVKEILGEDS
Sequence of MAP3K5 (human) (Q99683 whole entry, looked up): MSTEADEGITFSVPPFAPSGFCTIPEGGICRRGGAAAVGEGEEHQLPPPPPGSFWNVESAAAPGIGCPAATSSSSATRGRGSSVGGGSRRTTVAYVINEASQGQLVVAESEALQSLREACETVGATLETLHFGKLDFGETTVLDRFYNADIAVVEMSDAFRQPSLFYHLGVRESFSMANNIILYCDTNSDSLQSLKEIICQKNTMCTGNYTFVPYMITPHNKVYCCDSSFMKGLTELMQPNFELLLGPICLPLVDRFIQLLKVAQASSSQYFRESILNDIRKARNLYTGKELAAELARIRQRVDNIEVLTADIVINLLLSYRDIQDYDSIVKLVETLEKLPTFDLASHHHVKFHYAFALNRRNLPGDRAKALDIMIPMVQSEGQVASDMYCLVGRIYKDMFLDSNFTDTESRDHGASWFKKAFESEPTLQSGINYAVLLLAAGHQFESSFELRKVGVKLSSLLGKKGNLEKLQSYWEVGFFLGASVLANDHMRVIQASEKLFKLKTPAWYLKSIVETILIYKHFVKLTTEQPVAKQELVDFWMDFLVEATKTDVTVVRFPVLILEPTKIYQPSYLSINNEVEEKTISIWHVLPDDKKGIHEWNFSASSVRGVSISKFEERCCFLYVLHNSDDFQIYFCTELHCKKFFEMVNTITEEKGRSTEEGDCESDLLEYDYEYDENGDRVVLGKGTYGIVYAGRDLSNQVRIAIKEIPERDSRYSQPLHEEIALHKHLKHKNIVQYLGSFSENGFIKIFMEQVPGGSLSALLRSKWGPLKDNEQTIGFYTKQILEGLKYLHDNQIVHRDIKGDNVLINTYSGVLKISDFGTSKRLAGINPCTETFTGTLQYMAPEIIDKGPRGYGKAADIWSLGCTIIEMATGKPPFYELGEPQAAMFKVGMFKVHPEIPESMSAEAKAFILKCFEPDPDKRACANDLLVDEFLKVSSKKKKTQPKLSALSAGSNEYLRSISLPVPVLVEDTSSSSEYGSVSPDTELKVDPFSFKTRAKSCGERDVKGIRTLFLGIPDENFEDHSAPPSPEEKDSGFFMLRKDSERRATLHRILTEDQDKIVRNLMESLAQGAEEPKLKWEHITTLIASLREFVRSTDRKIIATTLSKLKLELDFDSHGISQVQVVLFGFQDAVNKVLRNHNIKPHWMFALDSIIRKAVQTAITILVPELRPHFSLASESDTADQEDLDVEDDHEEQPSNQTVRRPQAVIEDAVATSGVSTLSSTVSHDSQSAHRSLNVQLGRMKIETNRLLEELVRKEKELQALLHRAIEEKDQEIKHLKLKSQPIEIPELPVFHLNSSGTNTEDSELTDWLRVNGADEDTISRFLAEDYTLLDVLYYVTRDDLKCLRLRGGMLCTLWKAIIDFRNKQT
Sequence of MAP4K4 (human) (O95819 whole entry, looked up): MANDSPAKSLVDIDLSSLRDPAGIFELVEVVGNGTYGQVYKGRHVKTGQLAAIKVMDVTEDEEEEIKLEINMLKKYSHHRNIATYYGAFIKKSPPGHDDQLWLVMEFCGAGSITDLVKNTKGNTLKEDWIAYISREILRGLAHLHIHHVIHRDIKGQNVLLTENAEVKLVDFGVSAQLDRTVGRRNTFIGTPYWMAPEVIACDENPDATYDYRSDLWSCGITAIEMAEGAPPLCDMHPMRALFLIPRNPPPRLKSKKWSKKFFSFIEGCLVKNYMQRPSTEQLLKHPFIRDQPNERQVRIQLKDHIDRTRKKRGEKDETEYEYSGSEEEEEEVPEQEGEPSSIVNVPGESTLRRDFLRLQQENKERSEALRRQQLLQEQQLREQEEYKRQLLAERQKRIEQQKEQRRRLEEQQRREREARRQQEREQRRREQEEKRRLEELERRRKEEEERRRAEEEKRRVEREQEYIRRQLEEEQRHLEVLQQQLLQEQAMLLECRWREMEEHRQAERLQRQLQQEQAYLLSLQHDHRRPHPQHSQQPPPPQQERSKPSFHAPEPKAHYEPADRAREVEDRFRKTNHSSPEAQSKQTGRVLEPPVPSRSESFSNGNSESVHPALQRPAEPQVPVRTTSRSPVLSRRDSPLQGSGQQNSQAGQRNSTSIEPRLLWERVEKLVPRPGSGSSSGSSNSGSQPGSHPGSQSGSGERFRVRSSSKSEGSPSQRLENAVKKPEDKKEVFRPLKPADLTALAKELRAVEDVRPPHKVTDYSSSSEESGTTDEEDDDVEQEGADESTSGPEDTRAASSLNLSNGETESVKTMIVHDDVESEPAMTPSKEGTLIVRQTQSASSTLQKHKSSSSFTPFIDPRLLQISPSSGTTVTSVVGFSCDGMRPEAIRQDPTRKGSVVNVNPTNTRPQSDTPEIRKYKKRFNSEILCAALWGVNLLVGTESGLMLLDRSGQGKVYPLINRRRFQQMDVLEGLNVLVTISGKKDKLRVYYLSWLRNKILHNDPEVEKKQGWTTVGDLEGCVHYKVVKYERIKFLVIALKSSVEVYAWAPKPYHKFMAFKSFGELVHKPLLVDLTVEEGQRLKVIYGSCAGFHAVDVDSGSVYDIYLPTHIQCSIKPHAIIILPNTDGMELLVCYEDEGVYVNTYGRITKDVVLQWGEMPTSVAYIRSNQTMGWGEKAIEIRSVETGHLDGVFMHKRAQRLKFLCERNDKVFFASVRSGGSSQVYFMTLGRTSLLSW
Sequence of MKNK1 (human) (Q9BUB5 whole entry, looked up): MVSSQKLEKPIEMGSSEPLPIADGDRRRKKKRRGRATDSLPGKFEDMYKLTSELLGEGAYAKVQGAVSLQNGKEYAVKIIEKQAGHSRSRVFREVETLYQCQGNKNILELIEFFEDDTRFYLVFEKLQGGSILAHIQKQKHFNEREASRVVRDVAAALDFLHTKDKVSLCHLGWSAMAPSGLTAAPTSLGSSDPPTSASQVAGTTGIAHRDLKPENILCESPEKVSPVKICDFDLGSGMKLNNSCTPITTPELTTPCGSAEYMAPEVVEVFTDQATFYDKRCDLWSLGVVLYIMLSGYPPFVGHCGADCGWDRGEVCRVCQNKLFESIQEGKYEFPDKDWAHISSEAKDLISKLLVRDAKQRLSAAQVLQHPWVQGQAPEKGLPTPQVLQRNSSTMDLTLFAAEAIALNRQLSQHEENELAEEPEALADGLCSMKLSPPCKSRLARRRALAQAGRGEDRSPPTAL
Sequence of STK17B (human) (O94768 whole entry, looked up): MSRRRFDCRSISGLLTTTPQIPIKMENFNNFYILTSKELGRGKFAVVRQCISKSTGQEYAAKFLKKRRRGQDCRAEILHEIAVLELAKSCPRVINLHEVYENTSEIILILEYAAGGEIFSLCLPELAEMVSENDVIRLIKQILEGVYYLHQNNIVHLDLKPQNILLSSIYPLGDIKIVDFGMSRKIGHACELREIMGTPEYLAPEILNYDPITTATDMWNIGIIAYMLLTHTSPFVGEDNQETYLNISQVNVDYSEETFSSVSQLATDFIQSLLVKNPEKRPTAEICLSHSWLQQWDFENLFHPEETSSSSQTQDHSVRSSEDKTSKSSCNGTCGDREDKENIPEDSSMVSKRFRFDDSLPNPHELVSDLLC
Sequence of KIT (human), P10721 [D816V] (P10721 whole entry D816V, looked up): as the sequence (P10721 whole entry V559D/T670I, looked up) above, with D559V, I670T, D816V counted along it
Sequence of KIT (human) (P10721 whole entry, looked up): as the sequence (P10721 whole entry V559D/T670I, looked up) above, with D559V, I670T counted along it

COc1cc(N2CCN(C)CC2)ccc1Nc1ncc2c(n1)N(C)c1ccccc1N(C)C2=O
kinase still bound, per cent of control (MYLK3 (human)): 100% | kinase still bound, per cent of control (RIOK2 (human)): 50% | kinase still bound, per cent of control (PIM2 (human)): 100% | kinase still bound, per cent of control [1]: 100% | kinase still bound, per cent of control (STK16 (human)): 100% | kinase still bound, per cent of control (MELK (human)): 80% | kinase still bound, per cent of control (PDGFRB (human)): 98% | kinase still bound, per cent of control (DYRK1B (human)): 92% | kinase still bound, per cent of control (RIPK2 (human)): 100% | kinase still bound, per cent of control (RIPK4 (human)): 100% | kinase still bound, per cent of control (MAP4K2 (human)): 100% | kinase still bound, per cent of control (DAPK2 (human)): 84% | kinase still bound, per cent of control (HIPK1 (human)): 68% | kinase still bound, per cent of control (FLT3 (human)): 96% | kinase still bound, per cent of control (CAMKK2 (human)): 53% | kinase still bound, per cent of control (MYLK (human)): 97% | kinase still bound, per cent of control (CLK3 (human)): 100% | kinase still bound, per cent of control (CAMKK1 (human)): 73% | kinase still bound, per cent of control (STK17B (human)): 100% | kinase still bound, per cent of control (MAP3K5 (human)): 100% | kinase still bound, per cent of control (MKNK1 (human)): 100% | kinase still bound, per cent of control [2]: 84% | kinase still bound, per cent of control (RPS6KA6 KD2 (human)): 60% | kinase still bound, per cent of control (MYLK4 (human)): 100% | kinase still bound, per cent of control (CSNK1G3 (human)): 98% | kinase still bound, per cent of control [3]: 100% | kinase still bound, per cent of control (TTK (human)): 95% | kinase still bound, per cent of control (CSNK1G1 (human)): 100% | kinase still bound, per cent of control (STK17A (human)): 100% | kinase still bound, per cent of control (KIT (human)): 100% | kinase still bound, per cent of control (ACVR1 (human)): 100% | kinase still bound, per cent of control (PIP5K1A (human)): 95% | kinase still bound, per cent of control (MAP2K3 (human)): 92% | kinase still bound, per cent of control (PIM1 (human)): 91% | kinase still bound, per cent of control (NEK2 (human)): 96% | kinase still bound, per cent of control [4]: 86% | kinase still bound, per cent of control (PLK4 (human)): 67% | kinase still bound, per cent of control [5]: 97% | kinase still bound, per cent of control [6]: 90% | kinase still bound, per cent of control (ULK2 (human)): 100% | kinase still bound, per cent of control (MAP4K4 (human)): 85% | kinase still bound, per cent of control (CSNK1D (human)): 76%
